“Also recorded” adds a separate entry of the source.

Here are results for one molecule from patent US12090164B2, “Genotype-agnostic rescue of cystic fibrosis with small molecule bicarbonate channels” (The Board of Trustees of the University of Illinois, priority 2017, dated 2024).

The test system of assay [1] is CuFi-1 epithelial monolayers. The assay can be described thus: pH-stat titration of apical alkalinization. Type of assay: cell-based, human. The note with it: AmB 0.5, 1, 2 μM. The protocol: Large diameter NuLi and CuFi-1 cultured epithelia were used for this experiment (4.67 cm^2). These cultures were mounted in a dual-channel Ussing chamber (Warner U2500) using the culture cup insert for Transwell adapter, 24 mm (U9924T-24). The membranes were bathed at 37° C. on the apical side with a buffer-free solution (140 mM NaCl, 2 mM KCl, 2 mM CaCl2), and 1 mM MgCl2, 15 mM dextrose, gassed with air) and on the basolateral side with either a HCO3^− buffer (120 mM NaCl, 25 mM NaHCO3, 5 mM KCl, 2 mM CaC2, 1.2 mM MgCl2, 13.75 NaH2PO4, 5.6 mM dextrose, pH adjusted to 7.0) or a HCO3^−-free buffer (140 mM NaCl, 2 mM KCl, 2 mM CaCl2), 1 mM MgCl2, 10 mM HEPES, 5 mM dextrose, pH adjusted to 7.0). A microdiameter pH electrode (89231-590) and temperature probe (Radiometer Analytical T201 Temperature Sensor, E51M001) and titration burette attached to a Hach TIM856 NB pH/EP/Stat pH-STAT Titrator (R41T028) were inserted into the apical chamber. The basolateral chamber was covered with the chamber lid to prevent gas exchange. […]
The apical pH was titrated to a target pH of 6.0 using 1 mM HCl as titrant (min speed 0.25 mL/min, max speed 0.35 mL/min) (28, 57-59). Acid titration was measured over 20 minutes to establish a baseline value for the cultured epithelia […]. […] Acid titration was then measured over another 20 minutes to evaluate AmB-mediated pH change in the apical solution. […]

The next assay relates to yeast. The settings on record: cited from earlier work.
In assay [2] the test system is non-CF primary cultured epithelia. The assay is described as follows: ASL pH in non-CF primary cultured epithelia. The settings on record: AmB 2 μM, 48 h. Type of assay: cell-based, human. The protocol: Airway epithelial cells were obtained from human trachea and bronchi of CF and non-CF specimens obtained from the Iowa Donor Network, either as post-mortem specimens or from tissue deemed not fit for transplant. Studies were approved by the University of Iowa Institutional Review Board. After pronase enzymatic digestion, cells were seeded onto collagen-coated semi-permeable membranes (0.33-1.12 cm^2, Corning 3470 polyester, 3460 polyester, 3413 polycarbonate) and grown at an air-liquid interface (52). Airway epithelial cell cultures were analyzed after they had differentiated and at least 14 days post-seeding.
Small diameter NuLi, CuFi, and primary cultured epithelia were used for this experiment (0.33 cm^2). The ratiometric pH indicator SNARF-conjugated dextran (Molecular Probes) was used to measure ASL pH. […] ASL pH was measured 2 hr later (3, 4, 25). SNARF was excited at 488 nm and emission was recorded at 580 nm and 640 nm using a Zeiss LSM 800 microscope at 40× water immersion for cell line cultures and a Zeiss LSM 510 microscope for primary cultures. To generate a standard curve for pH determination, SNARF was dissolved in colorless pH standards and fluorescence ratios were converted to pH. […]
In all experiments, ASL pH of compound-treated epithelia was measured compared the results to vehicle-treated epithelia. […]

Assay [3] has as its system ASL of primary CF epithelia; Staphylococcus aureus killed. The assay is described as follows: ASL antibacterial activity (S. aureus-coated gold grids). Type of assay: cell-based, human. The note with it: 2 μM, 48 h. The protocol: Staphylococcus aureus-coated gold grids were used to measure antibacterial activity of airway epithelial cultures (3, 4). Small diameter primary cultured epithelia were used for this experiment (0.33 cm^2). Bacteria-coated gold TEM grids were placed onto the apical surface of airway epithelia for 1 min after 48 hours of perfluorocarbon (FC-72, Sigma), 2 μM AmB, or 2 μM C35deOAmB treatment. As controls, bacteria-coated grids were also placed in saline or AmB in FC-72 laid over saline to simulate the administration method for 1 minute. After removal, bacteria on the grids were assessed for viability using Live/Dead BacLight Bacterial Viability assay (Invitrogen). Viability was determined in 4-6 fields to determine the percentages of dead bacteria.

Consider `C[C@@H]1[C@H](O)[C@@H](C)/C=C/C=C/C=C/C=C/C=C/C=C/C=C/[C@H](O[C@@H]2O[C@H](C)[C@@H](O)[C@H](N)[C@@H]2O)C[C@@H]2O[C@](O)(C[C@@H](O)C[C@@H](O)[C@H](O)CC[C@@H](O)C[C@@H](O)CC(=O)O[C@H]1C)C[C@H](O)[C@H]2C(=O)O` [AmB, amphotericin B], for which, in assay [1] (HCO3−-free buffer), the “rate of apical alkalinization, bicarbonate free basolateral buffer” value is listed as “no change in rate of apical alkalinization was observed with any tested concentration of AmB; also recorded: not in the absence of basolateral bicarbonate”. In addition, in assay [1] (basolateral bicarbonate 25 mM), the “rate of apical chamber alkalinization, basolateral bicarbonate present” value is “increased the rate of apical chamber alkalization of CuFi-1 epithelia in a dose-dependent fashion; also recorded: dose-dependent increase in ASL pH”. For the same molecule, the “toxicity / fungicidal activity to yeast” value with yeast is reported as “highly toxic to yeast”. Besides, the “ASL pH of non-CF primary epithelia” value in assay [2] was “had no effect on the pH of non-CF primary cultured epithelia”. Also, the “ASL antibacterial activity (% of S. aureus killed after exposure to ASL)” value in assay [3] is “increased antibacterial activity for a diverse range of patient genotypes; also recorded: nearly doubled ASL bacterial killing; also recorded: restores ASL pH and antibacterial activity”.
